Numbers after ± are expanded uncertainties.
Key:
[1] = refractive index (Na D-line) (dimensionless); xn = mol fraction of the nth substance listed; settings: 101 kPa, Liquid, Standard Abbe refractometry
[2] = xn = mol fraction of the nth substance listed; settings: 101 kPa, Liquid; for viscosity: Stabinger Viscometer; for mass density: Vibrating tube method

CCn1cc[n+](C)c1.C[C@H](N)C(=O)[O-] [1-ethyl-3-methylimidazolium L-alaninate] + CCn1cc[n+](C)c1.N#C[C-](C#N)C#N
Settings	mass density, [2] [kg/m3]	refractive index, [1]	viscosity, [2] [mPa·s]
293.15 K, x2 = 0	1126.3 ± 17	1.51366 ± 0.0011	382.06 ± 28
293.15 K, x2 = 0.2506	1113.7 ± 16	1.51476 ± 0.0015	146.57 ± 8.3
293.15 K, x2 = 0.5	1102.2 ± 16	1.51409 ± 0.00078	78.6 ± 2.4
293.15 K, x2 = 0.7499	1092.9 ± 15	1.51367 ± 0.00086	31.55 ± 2
298.15 K, x2 = 0	1123 ± 17	1.51223 ± 0.0011	263.98 ± 16
298.15 K, x2 = 0.2506	1110.4 ± 16	1.5133 ± 0.0015	107.2 ± 5.5
298.15 K, x2 = 0.5	1098.9 ± 16	1.51258 ± 0.00078	60.26 ± 1.6
298.15 K, x2 = 0.7499	1089.3 ± 15	1.5121 ± 0.00086	25.68 ± 1.6
303.15 K, x2 = 0	1119.8 ± 17	1.51081 ± 0.0011	187.79 ± 9.8
303.15 K, x2 = 0.2506	1107.1 ± 16	1.51184 ± 0.0015	80.47 ± 3.8
303.15 K, x2 = 0.5	1095.6 ± 16	1.51107 ± 0.00078	46.89 ± 1.3
303.15 K, x2 = 0.7499	1085.9 ± 15	1.51053 ± 0.00086	21.18 ± 1.3
308.15 K, x2 = 0	–	1.50937 ± 0.0011	137.47 ± 6.2
308.15 K, x2 = 0.2506	–	1.51038 ± 0.0015	61.83 ± 2.8
308.15 K, x2 = 0.5	–	1.5095 ± 0.00078	–
308.15 K, x2 = 0.7499	–	1.50893 ± 0.00086	–
313.15 K, x2 = 0	–	1.50793 ± 0.0011	–
313.15 K, x2 = 0.2506	–	1.50888 ± 0.0015	–
313.15 K, x2 = 0.5	–	1.50796 ± 0.00078	–
313.15 K, x2 = 0.7499	–	1.50731 ± 0.00086	–
318.15 K, x2 = 0	–	1.50651 ± 0.0011	–
318.15 K, x2 = 0.2506	–	1.50736 ± 0.0015	–
318.15 K, x2 = 0.5	–	1.50643 ± 0.00078	–
318.15 K, x2 = 0.7499	–	1.50568 ± 0.00086	–
323.15 K, x2 = 0	–	1.50505 ± 0.0011	–
323.15 K, x2 = 0.2506	–	1.5059 ± 0.0015	–
323.15 K, x2 = 0.5	–	1.50488 ± 0.00078	–
323.15 K, x2 = 0.7499	–	1.50401 ± 0.00086	–
328.15 K, x2 = 0	–	1.50358 ± 0.0011	–
328.15 K, x2 = 0.2506	–	1.50436 ± 0.0015	–
328.15 K, x2 = 0.5	–	1.50338 ± 0.00078	–
328.15 K, x2 = 0.7499	–	1.50244 ± 0.00086	–
333.15 K, x2 = 0	–	1.50217 ± 0.0011	–
333.15 K, x2 = 0.2506	–	1.50293 ± 0.0015	–
333.15 K, x2 = 0.5	–	1.50191 ± 0.00078	–
333.15 K, x2 = 0.7499	–	1.50085 ± 0.00086	–
338.15 K, x2 = 0	–	1.50074 ± 0.0011	–
338.15 K, x2 = 0.2506	–	1.50148 ± 0.0015	–
338.15 K, x2 = 0.5	–	1.50039 ± 0.00078	–
338.15 K, x2 = 0.7499	–	1.49926 ± 0.00086	–
343.15 K, x2 = 0	–	1.49932 ± 0.0011	–
343.15 K, x2 = 0.2506	–	1.49997 ± 0.0015	–
343.15 K, x2 = 0.5	–	1.49888 ± 0.00078	–
343.15 K, x2 = 0.7499	–	1.49771 ± 0.00086	–
348.15 K, x2 = 0	–	1.49795 ± 0.0011	–
348.15 K, x2 = 0.2506	–	1.49851 ± 0.0015	–
348.15 K, x2 = 0.5	–	1.49739 ± 0.00078	–
348.15 K, x2 = 0.7499	–	1.49613 ± 0.00086	–
353.15 K, x2 = 0	–	1.49656 ± 0.0011	–
353.15 K, x2 = 0.2506	–	1.49704 ± 0.0015	–
353.15 K, x2 = 0.5	–	1.49589 ± 0.00078	–
353.15 K, x2 = 0.7499	–	1.49456 ± 0.00086	–

Reference: the NIST ThermoML archive (doi:10.1021/acs.jced.5b00242)
